Earlier results as cited in patent US6485708B1, “Products and methods for the remineralization and prevention of demineralization of teeth” (Church & Dwight Co. Inc., priority 1999, dated 2002).

Settings: aqueous solution, pH about 7.0, about 25° C.

**Q.** With `O.O.O=P([O-])([O-])O.[Ca+2]` [dicalcium phosphate dihydrate] as the compound, how does the calcium cations released read?
**A.** Its calcium cations released is “about 40 ppm”.
